Data: patent publication US12297203B2, “Pyrrolopyrimidine ITK inhibitors” (ACLARIS THERAPEUTICS, INC., priority 2018, dated 2025)

Key:
[1] = biological target: JAK3 (Homo sapiens (Human), UniProt P52333); experiment: JAK3 enzyme activity assay (Caliper mobility shift); format: biochemical; conditions: ATP at Km level; read-out: JAK3 Inh. IC50
How it was run: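 Caliper mobility-shift assay with 2.5 nM JAK3, […] and […] (Km level) in 20 mM HEPES pH 7.5, 10 mM MgCl2, 0.01% BSA, 0.0005% Tween-20, 2% DMSO. 11-point dose-response from […] 0.34 nM; IC50 by 4-parameter logistic fit of product/substrate signal.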

[2] = tested on: ITK phosphorylation of its substrate, PLCγ1, at Y783; experiment: ITK target modulation assay (PLCγ1 Y783 phosphorylation, anti-CD3 stimulated Jurkat T cells); format: cell-based; conditions: Homo sapiens, Jurkat, anti-CD3 Dynabeads stimulation, read-out: PLC-γ Inh. IC50
How it was run: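 Jurkat cells (400,000/well) were preincubated with compound for 1 h at 37 °C (0.1% DMSO final), then stimulated with anti-CD3 Dynabeads (bead:cell 2:1). Hypotonic lysates were dot-blotted and probed for phospho-PLCγ1 Y783 and total PLCγ1, with quantification by dual-channel infrared imaging.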

[3] = biological target: ITK (Homo sapiens (Human), UniProt Q08881); experiment: ITK inhibitor binding potency (LanthaScreen competitive binding assay); conditions: read-out: ITK Inh. IC50
How it was run: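 TR-FRET tracer displacement: 10 nM GST-ITK, 2 nM Eu-anti-GST, 50 nM tracer-236 in HEPES pH 7.5, MgCl2, 2% DMSO; 11 points, 20 µM–0.34 nM. Run with or without 2 h compound–ITK preincubation before tracer; IC50 by 4-parameter fit of emission ratio.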

[4] = tested on: JAK1/3 phosphorylation of its substrate, STAT5, at Y694; experiment: JAK1/3 target modulation assay (IL-2 stimulated STAT5 Y694 phosphorylation in PBMC); format: cell-based; conditions: Homo sapiens, PBMC, Primary human peripheral blood mononuclear cells, IL-2 25 ng/mL; read-out: IL2-STAT5 Inh. IC50
How it was run: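 Human PBMCs preincubated with compound for 1 h at 37 °C, then stimulated with IL-2 (25 ng/mL final) for 5 min. Cells were lysed and phospho-STAT5a,b (Y694) measured by MSD electrochemiluminescence immunoassay, single-plex or multiplex with total STAT5a,b.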

Sequence of ITK (Q08881 whole entry): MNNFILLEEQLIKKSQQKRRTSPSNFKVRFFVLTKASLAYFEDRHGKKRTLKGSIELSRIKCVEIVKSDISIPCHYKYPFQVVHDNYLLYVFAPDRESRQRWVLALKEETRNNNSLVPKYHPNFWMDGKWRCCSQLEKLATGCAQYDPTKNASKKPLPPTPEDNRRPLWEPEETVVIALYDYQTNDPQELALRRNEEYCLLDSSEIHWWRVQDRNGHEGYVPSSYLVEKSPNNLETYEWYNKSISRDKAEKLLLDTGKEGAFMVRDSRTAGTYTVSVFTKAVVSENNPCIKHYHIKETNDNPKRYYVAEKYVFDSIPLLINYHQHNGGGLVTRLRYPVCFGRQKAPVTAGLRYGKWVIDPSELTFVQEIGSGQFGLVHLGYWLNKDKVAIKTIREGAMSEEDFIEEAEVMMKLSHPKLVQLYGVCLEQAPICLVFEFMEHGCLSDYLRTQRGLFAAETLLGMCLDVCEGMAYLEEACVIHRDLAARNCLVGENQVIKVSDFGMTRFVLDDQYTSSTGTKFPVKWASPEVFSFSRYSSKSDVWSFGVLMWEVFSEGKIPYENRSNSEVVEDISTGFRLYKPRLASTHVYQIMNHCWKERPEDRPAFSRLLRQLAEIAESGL
Sequence of JAK3 (P52333 781-1124): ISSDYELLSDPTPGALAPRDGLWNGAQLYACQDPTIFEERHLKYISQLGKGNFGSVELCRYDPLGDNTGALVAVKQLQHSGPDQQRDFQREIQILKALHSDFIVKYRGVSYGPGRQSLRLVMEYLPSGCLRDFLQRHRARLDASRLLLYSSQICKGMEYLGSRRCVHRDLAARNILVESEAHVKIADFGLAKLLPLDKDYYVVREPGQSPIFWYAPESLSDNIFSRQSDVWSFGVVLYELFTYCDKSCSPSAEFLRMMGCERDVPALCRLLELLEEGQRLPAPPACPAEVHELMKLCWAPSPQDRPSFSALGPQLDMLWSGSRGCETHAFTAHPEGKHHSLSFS

SMILES	IC50 [1] [µM]	IC50 [2] [µM]	IC50 [3] [µM]	IC50 [4] [µM]
C=CC(=O)N1CCC[C@@H](Nc2ncnc3[nH]cc(C(=O)C4CC4)c23)C1 [Example 5, (R)-1-(3-((5-(cyclopropanecarbonyl)-7H-pyrrolo[2,3-d]pyrimidin-4-yl)amino)piperidin-1-yl)prop-2-en-1-one]	0.01 to 0.1	0.1 to 1	≤ 0.01	> 1
C=CC(=O)N1CCC[C@@H](Nc2ncnc3[nH]cc(C(=O)C4CCCC4)c23)C1 [Example 6, (R)-1-(3-((5-(cyclopentanecarbonyl)-7H-pyrrolo[2,3-d]pyrimidin-4-yl)amino)piperidin-1-yl)prop-2-en-1-one]	0.01 to 0.1	0.1 to 1	≤ 0.01	> 1
C=CC(=O)N1CC(Nc2ncnc3[nH]cc(C(=O)C4CC4)c23)C1 [Example 7, 1-(3-((5-(cyclopropanecarbonyl)-7H-pyrrolo[2,3-d]pyrimidin-4-yl)amino)azetidin-1-yl)prop-2-en-1-one]	> 0.1	> 1	0.01 to 0.1	> 1
C=CC(=O)N1CCC[C@@H](Nc2ccnc3[nH]cc(C(=O)CCOC)c23)C1 [Example 8, (R)-1-(3-((3-(3-methoxypropanoyl)-1H-pyrrolo[2,3-b]pyridin-4-yl)amino)piperidin-1-yl)prop-2-en-1-one]	0.01 to 0.1	> 1	0.01 to 0.1	> 1
C=CC(=O)N1CCC(Nc2ccnc3[nH]cc(C(=O)C4CC4)c23)CC1 [Example 10, 1-(4-((3-(cyclopropanecarbonyl)-1H-pyrrolo[2,3-b]pyridin-4-yl)amino)piperidin-1-yl)prop-2-en-1-one]	> 0.1	> 1	> 0.1	> 1
C=CC(=O)N1CCC[C@@H](Nc2ccnc3[nH]cc(C(=O)C4CCCC4)c23)C1 [Example 13, (R)-1-(3-((3-(cyclopentanecarbonyl)-1H-pyrrolo[2,3-b]pyridin-4-yl)amino)piperidin-1-yl)prop-2-en-1-one]	0.01 to 0.1	0.1 to 1	≤ 0.01	0.1 to 1
C=CC(=O)N1CC[C@@H](Nc2ccnc3[nH]cc(C(=O)C4CC4)c23)C1 [Example 15, (R)-1-(3-((3-(cyclopropanecarbonyl)-1H-pyrrolo[2,3-b]pyridin-4-yl)amino)pyrrolidin-1-yl)prop-2-en-1-one]	0.01 to 0.1	0.1 to 1	≤ 0.01	> 1
C=CC(=O)N1CCC[C@@H](Nc2ncnc3[nH]cc(C(C)C4CC4)c23)C1 (stereo partly drawn) [Example 21, 1-((3R)-3-((5-(1-cyclopropylethyl)-7H-pyrrolo[2,3-d]pyrimidin-4-yl)amino)piperidin-1-yl)prop-2-en-1-one]	> 0.1	> 1	> 0.1	> 1
C=CC(=O)N1C[C@H](Nc2ncnc3[nH]cc(CC4CC4)c23)CC[C@@H]1C [Example 24, 1-((2S,5R)-5-((5-(cyclopropylmethyl)-7H-pyrrolo[2,3-d]pyrimidin-4-yl)amino)-2-methylpiperidin-1-yl)prop-2-en-1-one]	≤ 0.01	≤ 0.1	≤ 0.01	0.1 to 1
C=CC(=O)N1CCC[C@@H](Nc2ncnc3[nH]cc(C4CC4(F)F)c23)C1 (stereo partly drawn) [Example 27, 1-((3R)-3-((5-(2,2-difluorocyclopropyl)-7H-pyrrolo[2,3-d]pyrimidin-4-yl)amino)piperidin-1-yl)prop-2-en-1-one]	≤ 0.01	≤ 0.1	≤ 0.01	0.1 to 1
C=CC(=O)N1CCC[C@@H](Nc2ncnc3[nH]cc(C4CCCC4)c23)C1 [Example 28, (R)-1-(3-((5-cyclopentyl-7H-pyrrolo[2,3-d]pyrimidin-4-yl)amino)piperidin-1-yl)prop-2-en-1-one]	≤ 0.01	≤ 0.1	≤ 0.01	0.1 to 1
C=CC(=O)N1CCC[C@@H](Nc2ncnc3[nH]cc(C4=CCCC4)c23)C1 [Example 29, (R)-1-(3-((5-(cyclopent-1-en-1-yl)-7H-pyrrolo[2,3-d]pyrimidin-4-yl)amino)piperidin-1-yl)prop-2-en-1-one]	≤ 0.01	0.1 to 1	≤ 0.01	0.1 to 1

Other lines, results leading:

IC50 [1] [µM]	IC50 [2] [µM]	IC50 [3] [µM]	IC50 [4] [µM]	SMILES
≤ 0.01	> 1	≤ 0.01	0.1 to 1	C=CC(=O)N1CCC[C@@H](Nc2ncnc3[nH]cc(C(=O)OCC)c23)C1 [Example 1, ethyl (R)-4-((1-acryloylpiperidin-3-yl)amino)-7H-pyrrolo[2,3-d]pyrimidine-5-carboxylate]
≤ 0.01	0.1 to 1	≤ 0.01	0.1 to 1	C=CC(=O)N1C[C@H](Nc2ncnc3[nH]cc(C(=O)OCC)c23)CC[C@@H]1C [Example 2, ethyl 4-(((3R,6S)-1-acryloyl-6-methylpiperidin-3-yl)amino)-7H-pyrrolo[2,3-d]pyrimidine-5-carboxylate]
≤ 0.01	≤ 0.1	≤ 0.01	0.1 to 1	C=CC(=O)N1C[C@H](Nc2ncnc3[nH]cc(C(=O)OCCC)c23)CC[C@@H]1C [Example 3, propyl 4-(((3R,6S)-1-acryloyl-6-methylpiperidin-3-yl)amino)-7H-pyrrolo[2,3-d]pyrimidine-5-carboxylate]
≤ 0.01	0.1 to 1	≤ 0.01	0.1 to 1	C=CC(=O)N1C[C@H](Nc2ncnc3[nH]cc(C(=O)OC(C)C)c23)CC[C@@H]1C [Example 4, isopropyl 4-(((3R,6S)-1-acryloyl-6-methylpiperidin-3-yl)amino)-7H-pyrrolo[2,3-d]pyrimidine-5-carboxylate]
≤ 0.01	0.1 to 1	≤ 0.01	0.1 to 1	C=CC(=O)N1CCC[C@@H](Nc2ccnc3[nH]cc(C(=O)C4CC4)c23)C1 [Example 9, (R)-1-(3-((3-(cyclopropanecarbonyl)-1H-pyrrolo[2,3-b]pyridin-4-yl)amino)piperidin-1-yl)prop-2-en-1-one]
≤ 0.01	0.1 to 1	≤ 0.01	0.1 to 1	C=CC(=O)N1CCC[C@@H](Nc2ccnc3[nH]cc(C(=O)C4(C)CC4)c23)C1 [Example 14, (R)-1-(3-((3-(1-methylcyclopropane-1-carbonyl)-1H-pyrrolo[2,3-b]pyridin-4-yl)amino)piperidin-1-yl)prop-2-en-1-one]
≤ 0.01	> 1	0.01 to 0.1	0.1 to 1	C=CC(=O)N1C[C@H](Nc2ncnc3[nH]cc(C(=O)OCC(C)C)c23)CC[C@@H]1C [Example 16, isobutyl 4-(((3R,6S)-1-acryloyl-6-methylpiperidin-3-yl)amino)-7H-pyrrolo[2,3-d]pyrimidine-5-carboxylate]
≤ 0.01	≤ 0.1	≤ 0.01	0.1 to 1	C=CC(=O)N1C[C@H](Nc2ncnc3[nH]cc(C(=O)C4CCC4)c23)CC[C@@H]1C [Example 17, 1-((2S,5R)-5-((5-(cyclobutanecarbonyl)-7H-pyrrolo[2,3-d]pyrimidin-4-yl)amino)-2-methylpiperidin-1-yl)prop-2-en-1-one]
≤ 0.01	≤ 0.1	≤ 0.01	0.1 to 1	C=CC(=O)N1CCC[C@@H](Nc2ncnc3[nH]cc(CC4CC4)c23)C1 [Example 18, (R)-1-(3-((5-(cyclopropylmethyl)-7H-pyrrolo[2,3-d]pyrimidin-4-yl)amino)piperidin-1-yl)prop-2-en-1-one]
≤ 0.01	≤ 0.1	≤ 0.01	0.1 to 1	C=CC(=O)N1CCC[C@@H](Nc2ccnc3[nH]cc(CC4CC4)c23)C1 [Example 19, (R)-1-(3-((3-(cyclopropylmethyl)-1H-pyrrolo[2,3-b]pyridin-4-yl)amino)piperidin-1-yl)prop-2-en-1-one]
≤ 0.01	0.1 to 1	≤ 0.01	0.1 to 1	C=CC(=O)N1CCC[C@@H](Nc2ncnc3[nH]cc(CC4CCC4)c23)C1 [Example 20, (R)-1-(3-((5-(cyclobutylmethyl)-7H-pyrrolo[2,3-d]pyrimidin-4-yl)amino)piperidin-1-yl)prop-2-en-1-one]
≤ 0.01	0.1 to 1	≤ 0.01	0.1 to 1	C=CC(=O)N1CCC[C@@H](Nc2ncnc3[nH]cc(CC4CCCC4)c23)C1 [Example 22, (R)-1-(3-((5-(cyclopentylmethyl)-7H-pyrrolo[2,3-d]pyrimidin-4-yl)amino)piperidin-1-yl)prop-2-en-1-one]
≤ 0.01	0.1 to 1	≤ 0.01	0.1 to 1	C=CC(=O)N1CCC[C@@H](Nc2ncnc3[nH]cc(C4(C)CC4)c23)C1 [Example 23, (R)-1-(3-((5-(1-methylcyclopropyl)-7H-pyrrolo[2,3-d]pyrimidin-4-yl)amino)piperidin-1-yl)prop-2-en-1-one]
